Source: ChEMBL document CHEMBL5303304, “EUbOPEN Chemogenomics Library - IncuCyte” (2023)

What was measured:
Type in all cases: toxicity, cell-based
U2OS = experiment: Incucyte cell viability with U2OS; conditions: human, 10 µM, compound concentration 10 uM
Fibroblast = experiment: Incucyte cell viability with human fibroblast; conditions: 10 µM, compound concentration 10 uM
HEK-293T = experiment: Incucyte cell viability with HEK293T; conditions: human, 10 µM, compound concentration 10 uM
Note: unitless GR value; below 1 slowed growth and below 0 cell loss.

Structure (SMILES)	Growth Rate (U2OS; 0 h, replicate number 2)	Growth Rate (U2OS; 6 h, replicate number 2)	Growth Rate (U2OS; 12 h, replicate number 2)	Growth Rate (U2OS; 18 h, replicate number 2)	Growth Rate (U2OS; 24 h, replicate number 2)	Growth Rate (Fibroblast; 0 h, replicate number 2)	Growth Rate (Fibroblast; 6 h, replicate number 1)	Growth Rate (Fibroblast; 18 h, replicate number 1)	Growth Rate (HEK-293T; 0 h, replicate number 2)	Growth Rate (HEK-293T; 6 h, replicate number 1)	Growth Rate (HEK-293T; 18 h, replicate number 2)	Growth Rate (HEK-293T; 24 h, replicate number 2)	Growth Rate (U2OS; 6 h, replicate number 1)	Growth Rate (U2OS; 24 h, replicate number 1)	Growth Rate (HEK-293T; 6 h, replicate number 2)	Growth Rate (HEK-293T; 12 h, replicate number 2)	Growth Rate (HEK-293T; 18 h, replicate number 1)	Growth Rate (Fibroblast; 6 h, replicate number 2)	Growth Rate (Fibroblast; 12 h, replicate number 2)	Growth Rate (Fibroblast; 18 h, replicate number 2)	further results
CCOC(=O)c1ccc(N2C(=O)C(O)=C(C(=O)c3ccc(OC)cc3)C2c2ccc(F)cc2)cc1 (stereo not drawn)	0.5	0.87	0.89	1	0.74	-0.75	0.14	-0.29	0.85	0.75	0.83	0.85									Growth Rate (U2OS; 0 h, replicate number 1): 0.54; Growth Rate (U2OS; 18 h, replicate number 1): 0.96; Growth Rate (Fibroblast; 12 h, replicate number 1): -1
C1=Cc2ccccc2C(=C2CCN(CCCCc3nn[nH]n3)CC2)c2ccccc21						-0.99				0.94			0.4	0.89	0.78	0.94	0.91				Growth Rate (HEK-293T; 0 h, replicate number 1): 0.42
Cc1ncsc1-c1ccc(CNC(=O)[C@@H]2C[C@H](O)CN2C(=O)[C@@H](NC(=O)C2(F)CC2)C(C)(C)C)c(OCCOc2ccc(CN3CCN(c4cc(-c5ccccc5O)nnc4N)CC3)cc2)c1						0.56			-0.99					0.98							Growth Rate (HEK-293T; 0 h, replicate number 1): -0.03
C[C@@H]1C[C@H](N)C[C@H](c2ccncc2NC(=O)c2ccc(F)c(-c3c(F)cccc3F)n2)C1 [LGH-447]					0.96	0.09		0.87		-0.02	0.54	0.57	-0.22	0.98	0.11	0.54	0.27	0.93	0.9	0.58	Growth Rate (U2OS; 12 h, replicate number 1): 0.59; Growth Rate (U2OS; 18 h, replicate number 1): 0.82; Growth Rate (Fibroblast; 12 h, replicate number 1): 0.96; Growth Rate (Fibroblast; 24 h, replicate number 1): 0.67; Growth Rate (Fibroblast; 24 h, replicate number 2): 0.44; Growth Rate (HEK-293T; 12 h, replicate number 1): 0.2; Growth Rate (HEK-293T; 24 h, replicate number 1): 0.36
COCCNc1nc2ccc(C#CC3(O)CCCCC3)cc2n1-c1ccnc(N)n1		0.8	0.69	0.73	0.78		-0.48	0.24		0.37	0.96	0.84	0.44	0.92		1		-1	-0.26	0.28	Growth Rate (U2OS; 12 h, replicate number 1): 0.77; Growth Rate (U2OS; 18 h, replicate number 1): 0.85; Growth Rate (Fibroblast; 12 h, replicate number 1): -1; Growth Rate (Fibroblast; 24 h, replicate number 1): 0.3; Growth Rate (Fibroblast; 24 h, replicate number 2): 0.18
COc1ccc2nc3ccc(OC)cc3c(SCCCN)c2c1.Cl	-0.96			0.99	0.85	-0.39	-1			-0.94	0.45	0.33		0.86	0.26	0.76	-0.57				Growth Rate (Fibroblast; 24 h, replicate number 2): 0.89; Growth Rate (HEK-293T; 12 h, replicate number 1): -0.75; Growth Rate (HEK-293T; 24 h, replicate number 1): -0.41
O=C(NCCN1CCOCC1)c1ccc2nn(CCOc3ccc(Cl)cc3)cc2c1	0.25	0.98	0.88			-0.92	0.63	0.86	0.3	0.47	0.47	0.61	0.71	0.93	0.26	0.18	0.71	0.87	0.78	0.98	Growth Rate (Fibroblast; 0 h, replicate number 1): -1; Growth Rate (Fibroblast; 24 h, replicate number 1): 0.92; Growth Rate (HEK-293T; 0 h, replicate number 1): 0.54; Growth Rate (HEK-293T; 12 h, replicate number 1): 0.82; Growth Rate (HEK-293T; 24 h, replicate number 1): 0.72
COc1cc(N(C)c2ccnc3ccc(C(F)(F)F)cc23)cc(OC)c1OC	0.66	0.7	0.88	0.92	0.84		-0.52		-1		0.27	0.48		1	-0.32	0.01		0.41	0.94	0.91	Growth Rate (U2OS; 12 h, replicate number 1): 0.9; Growth Rate (Fibroblast; 0 h, replicate number 1): 0.97
